Reference: US20260097111A1, “ETHER LIPIDS FOR HYPERACTIVATION OF MAMMALIAN DENDRITIC CELLS” (priority 2022, published 2026)
“Also recorded” adds a separate entry of the source.

Tests used:
FLT3L-DCs = experiment: Migration of injected FLT3L-DCs to skin draining lymph nodes; assay type: in vivo, mice; settings: DCs stimulated with R848 1 μg/mL and 41 uM lipid, injected SC, 24 hours; FIG. 5; listed as DGP
Method: Murine bone marrow-derived FLT3L-DCs hyperactivation for migration assays. BMDCs were harvested on day 8 post differentiation, washed with PBS, and re-plated in FLT3L-containing I10 at a concentration of 1×10^6 cells/mL. For DC hyperactivation, 500 μl of R848 was added at a final concentration of 1 μg/mL, and 500 μl of lipids (DGPC (Compound 1), DGP (Compound 2), DHC (Compound 7) or DHMC (Compound 8) or 22:0 lyso PC) prepared in 4% KP407 was diluted to a final concentration of 41 uM. Cells were incubated for 24 hours at 37° C. on a tube rotator. Twenty-four hours post-stimulation, cells were washed with PBS and stained with CFSE (1:1000) for 30 min at 37° C. in the dark. DCs were then counted and 1.10×10^6 cells were injected subcutaneously (SC) in 100 ul per mouse. 24 hours post-injection, the skin draining lymph nodes (dLN) were dissected. A single cell suspension was prepared, and cells were stained in PBS with Live Dead Fixable dye (ThermoFisher) for 20 min at 4° C. Cells were then washed again and stained for 20 min at 4° C. in MACS buffer (PBS with 1% FCS and 2 mM EDTA) containing the following fluorescently conjugated antibodies: anti-CD11c and anti-I-A/I-E (MHC-II). […] Data were analyzed using FlowJo software (Tree Star). […]

[1] = Serum chemokines and cytokines after SC injection; assay type: in vivo, mice; settings: SC injection; 2, 24 and 48 hours post injection; FIG. 49
Method: Lipid Preparation. […] Lipids were used for chemical injections or DC treatment within one hour of their preparation.
Subcutaneous (SC) Injection. Mice were placed under Isoflurane for a few min for anesthesia. Tubes containing the chemicals were vortexed for 30 seconds, then loaded with a 1 mL Sub-Q syringe.
Blood Collection. Mice were placed under Isoflurane for approximately 10 min for anesthesia. Using a 21G needle, mice were gently poked through the skin to the submandibular space to induce bleeding. Five-Six drops were collected in a mini collect K2EDTA blood collection tube. Blood samples were transported back to Corner Therapeutics lab on ice. The blood was then centrifuged at 1500×g for 5 min. After centrifugation, blood was collected into a 96-well round bottom plate and stored at −80° C.
Measurement of Serum Chemokines and Cytokines. Secreted cytokines were measured in the supernatant by cytokine bead array using the LEGENDplex™ Mouse Murine Proinflammatory Chemokine, Murine Cytokine Release Syndrome Legendplex and LEGENDplex™ Mouse Cytokine Panel 2 (Biolegend) according to the manufacturer's protocol. Data were collected using a Quanteon Novocyte flow cytometer and analyzed using the cloud-based software provided by Biolegend.

In the case of `CCCCCCCCCCCCCCCCCCCCCCOC[C@@H](O)COP(=O)(O)O` [Compound 2, 1-docosyl-sn-glycerol-3-phosphate], the “DC migration from the skin to the dLN” value (FLT3L-DCs) was “significantly enhanced DC migration from the skin to the dLN; also recorded: migration activity was significantly higher than DGPC (Compound 1)” and the “cytokine and chemokine release in the serum” value [1] was “unable to induce any cytokine or chemokine release in the serum at any timepoint”.
